Test results published in patent publication US7297790B2, “Anhydrous mirtazapine crystals and process for preparing the same” (Sumitomo Chemical Company, Limited, priority 1999, dated 2007).

Assay: Hygroscopic degree of crystals stored at constant temperature and humidity (petri dish, weight gain)
Type: physicochemical
Settings: 75% relative humidity, chamber temperature 25° C., after 500 hours; compared with Comparative Example 3
Method: Next, the mirtazapine crystals obtained in Example 7 and Comparative Example 3 were placed on a petri dish, and the petri dish was placed in a constant temperature and humidity of 75% relative humidity and a chamber temperature of 25° C., and the change in the hygroscopic degree of the crystals was evaluated. Incidentally, the hygroscopic degree is calculated by the following equation: [Hygroscopic Degree (% by weight)]=[(Weight (g) of Crystals After Treatment)−(Weight (g) of Crystals Before Treatment)]÷[Weight (g) of Crystals Before Treatment]×100

**Q.** Which “hygroscopic degree with the passage of time (FIG. 2), in words” value does the source give for `CN1CCN2c3ncccc3Cc3ccccc3C2C1` (stereo not shown) [Example 7, anhydrous mirtazapine] here?
**A.** The value was “very low”.
